Experiments:
[1] = test system: perfused leg of N5STZ rats; experiment: Sorption of glucose on the perfused leg of N5STZ rats in absence of insulin; assay type: in vivo; conditions: perfused back leg of N5STZ rats; for sorption of glucose: compound 10 μg/mL, 8 mmol/L glucose, n = 4
N5STZ rats = experiment: Antidiabetic activity in N5STZ rats (oral, change in glycaemia); assay type: in vivo; conditions: four days of treatment, N5STZ diabetic rats, blood sample two hours after final administration
Protocol: Study of the Antidiabetic Activity in N5STZ Rats
The oral antidiabetic activity of the compounds of the formula (I) was determined on an experimental model of non-insulin-dependent diabetes induced in the rats using steptozotocin.
The model of non-insulin-dependent diabetes is obtained in the rats by means of an injection of steptozotocin on the 5th day after birth.
The diabetic rats used are eight weeks old. The animals are housed, from the day of birth to the day of the experiment, in an animal house at a regulated temperature of 21 to 22° C. and subjected to a fixed cycle of light (from 7 a.m. to 7 p.m.) and darkness (from 7 p.m. to 7 a.m.). Their food consisted of a maintenance diet, and water and food were given “ad libitum”, with the exception of fasting two hours before the tests, during which period the food is removed (post-absorptive state).
The rats are treated orally with the test product for four (D4) days. Two hours after the final administration of the product and 30 minutes after the animals have been anaesthetised with pentobarbital sodium (Nembutal®), a 300 μl blood sample is taken from the end of the tail.
By way of example, results obtained with compound 1 prepared above are collated compared with metformin in the following table.

SMILES | induction of sorption of glucose by the muscle in absence of insulin (in words) [1] | sorption of glucose [1] | percentage change in the glycaemia on D4 relative to DO (N5STZ rats; 25 mg/kg) [%] | percentage change in the glycaemia on D4 relative to DO (N5STZ rats; 50 mg/kg) [%] | percentage change in the glycaemia on D4 relative to DO (N5STZ rats; 100 mg/kg) [%]
CN(C)C(=N)N=C(N)N [Metformin, metformin] | no effect | 32.09 ± 7.25 (n = 4) μmol/g/l | −13 | −22 | −21
CN(C)C(=N)NC(=N)N1CCCC1.Cl [Compound 1, Dimethylaminoiminomethylpyrrolidinecarboximidamide Hydrochloride] | – | 116.08 ± 20.63 (n = 4) μmol/g/l | −6 | −23 | −36

From patent publication US20040092495A1, “Biguanide derivatives” (priority 2001, published 2004)
